Test results: patent US20260042754A1, “Substituted Bicyclic Heteroaryl Sulfonamide Derivatives for the Treatment of Cancer” (NODUS ONCOLOGY LIMITED, priority 2022, published 2026)

Assays:
[1] = molecular target: human PARG (PARG-NanoLuc fusion in HEK293T cells) (Homo sapiens (Human), UniProt Q86W56); assay: PARG NanoBRET-based cellular target engagement assay; assay type: cell-based; conditions: HEK293T cells transfected with PARG-NanoLuc, NanoBRET probe 0.89 μM, 2 hours; read-out: PARG TE IC50
Sequence of human PARG (PARG-NanoLuc fusion in HEK293T cells) (Q86W56 whole entry, the tested form may be a part): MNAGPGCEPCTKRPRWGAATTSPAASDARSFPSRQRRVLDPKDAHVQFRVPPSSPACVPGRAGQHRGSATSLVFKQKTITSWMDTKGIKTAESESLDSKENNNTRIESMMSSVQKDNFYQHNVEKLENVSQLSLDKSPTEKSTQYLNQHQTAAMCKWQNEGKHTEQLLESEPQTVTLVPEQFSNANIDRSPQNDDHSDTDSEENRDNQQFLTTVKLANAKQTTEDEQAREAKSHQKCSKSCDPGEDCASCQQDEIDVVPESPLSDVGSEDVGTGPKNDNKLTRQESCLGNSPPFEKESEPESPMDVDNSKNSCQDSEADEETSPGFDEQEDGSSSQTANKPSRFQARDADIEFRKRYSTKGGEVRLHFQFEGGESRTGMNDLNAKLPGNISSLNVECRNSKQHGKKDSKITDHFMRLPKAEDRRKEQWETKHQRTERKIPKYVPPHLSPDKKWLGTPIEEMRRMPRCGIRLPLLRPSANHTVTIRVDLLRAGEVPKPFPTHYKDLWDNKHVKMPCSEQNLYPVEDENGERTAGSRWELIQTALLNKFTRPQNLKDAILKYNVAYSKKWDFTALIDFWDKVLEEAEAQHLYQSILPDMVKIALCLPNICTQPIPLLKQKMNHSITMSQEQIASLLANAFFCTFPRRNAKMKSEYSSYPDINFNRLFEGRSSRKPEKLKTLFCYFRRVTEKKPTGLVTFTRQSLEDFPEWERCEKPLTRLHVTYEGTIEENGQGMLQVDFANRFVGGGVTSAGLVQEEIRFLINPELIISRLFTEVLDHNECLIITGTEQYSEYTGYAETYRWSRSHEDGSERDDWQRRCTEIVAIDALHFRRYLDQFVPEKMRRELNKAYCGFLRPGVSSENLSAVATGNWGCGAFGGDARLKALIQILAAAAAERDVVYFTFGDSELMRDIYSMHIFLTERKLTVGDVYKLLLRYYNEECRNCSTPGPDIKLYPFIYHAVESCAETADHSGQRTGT
Procedure, shortened: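 HEK293T cells transiently expressing full-length human PARG with C-terminal NanoLuc, plated 24 h, then given compound (8-point series, 0.5% DMSO) for 15 min at room temperature. NanoBRET tracer added at 0.89 μM final, 2 h at 37° C.; BRET ratio (460/645 nm) fitted by 4-parameter logistic to give IC50.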

[2] = molecular target: Recombinant His-tagged human PARG protein (Homo sapiens (Human), UniProt Q86W56); assay: PARG enzymatic assay (TFMU-ADPr fluorescence); assay type: biochemical; conditions: 1 nM enzyme, 200 μM TFMU-ADPr, read after 30 minutes
Sequence of Recombinant His-tagged human PARG protein (Q86W56 whole entry): as the sequence (Q86W56 whole entry, the tested form may be a part) above
Procedure, shortened: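 Sf21-expressed His-tagged human PARG (1 nM) preincubated 15 min with compound (8-point series, 0.5% DMSO) in pH 7.4 phosphate/KCl/β-mercaptoethanol buffer, then 200 μM TFMU-ADPr added. Fluorescence (ex 380/em 535 nm) read after 30 min; IC50 from 4-parameter logistic fit, no-enzyme control as bottom.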

RMUG-S = assay: Modified cell proliferation assay (CellTiter-Glo), RMUG-S, Examples 12-44; assay type: cell-based; conditions: Examples 12-44: modified protocol, 384-well, 300 cells per well, 120 h; highest concentration tested 9000 nM; read-out: RMUG-S GI50 (high PARG dependency)
Description: The cell proliferation assay protocol was modified and used for RMUG-S for Examples 12-44, and subsequently used to test Examples 1-44 in the NCI-H1650 cell line.
NCI-H1650 (ATCC, #CRL-5883) or RMUG-S were seeded on day 1 at 300 cells per well in a 384-well plate (Greiner, #781080) that assure assay linearity and optimal signal intensity in 25 μL of RPMI1640 media (Pan Biotech, #P04-22100) containing 10% FCS (Capricorn, #FBS-11A; Lot. CP22-5141) and 1% Glutamine (Pan Biotech, #P04-80100). After incubation for 24 h in humidified chambers at 37° C./5% CO2, compounds/DMSO were dispensed at different concentrations using an Echo 520 (Beckman Coulter). Cells were further incubated for 120 h at 37° C. and 5% CO2. Cells treated with the compound vehicle DMSO were used as negative controls and cells treated with 10 μM Staurosporine (LC Laboratories, #S-9300) served as positive controls.
At day 6 the CellTiter Glo Reagent was prepared according to the instructions of the kit (Promega Inc.): Reagent was mixed 1:1 with cell culture medium. Thereon, mixture and assay plates were equilibrated at room temperature for 20 min. Equal volumes of the reagent-medium-mixture were added to the volume of culture medium present in each well. The plates were mixed at […] for 2 minutes on an orbital shaker (Timix5, Edmund Buehler GmbH). The microplates were then incubated at room temperature for 10 minutes for stabilization of the luminescent signal. Following incubation, the luminescence was recorded on a Victor X5 microplate reader (Perkin Elmer) using a 200 ms integration time. The data was then analyzed with Excel using the XLFIT Plugin (dose response Fit 205) for determination of the concentration necessary for half-maximal inhibition (i.e. the inflection point of the fitted curve).
As quality control the Z′-factor was calculated from 16 positive and negative control values. Only assay results showing a Z′-factor≥0.5 were used for further analysis.

NCI-H1650 = assay: Modified cell proliferation assay (CellTiter-Glo), NCI-H1650; assay type: cell-based; conditions: modified protocol, 384-well, 300 cells per well, 120 h; highest concentration tested 30000 nM; read-out: NCI-H1650 GI50 (high PARG dependency)
Procedure, shortened: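 NCI-H1650 or RMUG-S cells seeded at 300 cells/well in RPMI1640 with 10% FCS, compounds added after 24 h, then 120 h at 37 °C/5% CO2. Viability read by CellTiter-Glo luminescence; IC50 from fitted dose-response inflection point. Z′≥0.5 required.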

**Q.** For `CO/N=c1\[nH]c2c(C3=C[C@@H](C)N(C)CC3)cc(S(=O)(=O)NC3(C)CC3)cc2c(=O)n1Cc1cnn(C)c1` [Example 28, (2E)-2-methoxyimino-N-(1-methylcyclopropyl)-3-[(1-methylpyrazol-4-yl)methyl]-4-oxo-8-[(2R)-1,2-dimethyl-3,6-dihydro-2H-pyridin-4-yl]-1H-quinazoline-6-sulfonamide/(2E)-2-methoxyimino-N-(1-methylcyclopropyl)-3-[(1-methylpyrazol-4-yl)methyl]-4-oxo-8-[(6R)-1,6-dimethyl-3,6-dihydro-2H-pyridin-4-yl]-1H-quinazoline-6-sulfonamide], which IC50 [1] is on record?
**A.** The IC50 was less than 30 nM.

**Q.** What about the IC50 [2] of the same compound?
**A.** The IC50 was less than 30 nM.

**Q.** What about the GI50 (RMUG-S) of the same compound?
**A.** Its GI50 is 500 to 2000 nM.

**Q.** And the GI50 (NCI-H1650)?
**A.** Its GI50 is less than 500 nM.

**Q.** Which results are given for `CO/N=c1\[nH]c2c(C3=C[C@@H](C)N(C(C)=O)CC3)cc(S(=O)(=O)NC3(C)CC3)cc2c(=O)n1Cc1cnn(C)c1` [Example 29, (2E)-2-methoxyimino-N-(1-methylcyclopropyl)-3-[(1-methylpyrazol-4-yl)methyl]-4-oxo-8-[(2R)-1-acetyl-2-methyl-3,6-dihydro-2H-pyridin-4-yl]-1H-quinazoline-6-sulfonamide/(2E)-2-methoxyimino-N-(1-methylcyclopropyl)-3-[(1-methylpyrazol-4-yl)methyl]-4-oxo-8-[(6R)-1-acetyl-6-methyl-3,6-dihydro-2H-pyridin-4-yl]-1H-quinazoline-6-sulfonamide]?
**A.** IC50 [1]: < 30 nM; IC50 [2]: < 30 nM; GI50 (RMUG-S): 500 to 2000 nM; GI50 (NCI-H1650): 500 to 2000 nM

**Q.** `CO/N=c1\[nH]c2c(C3=C[C@@H](C)N(C(=O)C4(C)CC4)CC3)cc(S(=O)(=O)NC3(C)CC3)cc2c(=O)n1Cc1cnn(C)c1` [Example 30, (2E)-2-methoxyimino-N-(1-methylcyclopropyl)-3-[(1-methylpyrazol-4-yl)methyl]-4-oxo-8-[(2R)-2-methyl-1-(1-methylcyclopropanecarbonyl)-3,6-dihydro-2H-pyridin-4-yl]-1H-quinazoline-6-sulfonamide/(2E)-2-methoxyimino-N-(1-methylcyclopropyl)-3-[(1-methylpyrazol-4-yl)methyl]-4-oxo-8-[(6R)-6-methyl-1-(1-methylcyclopropanecarbonyl)-3,6-dihydro-2H-pyridin-4-yl]-1H-quinazoline-6-sulfonamide] was tested. Which IC50 [1] did it give?
**A.** The IC50 was less than 30 nM.

**Q.** And the IC50 [2]?
**A.** Its IC50 is less than 30 nM.

**Q.** And the GI50 (RMUG-S)?
**A.** The GI50 was less than 500 nM.

**Q.** What about the GI50 (NCI-H1650) of the same compound?
**A.** Its GI50 is less than 500 nM.
